In ChEMBL document CHEMBL3217577, “Recent applications of multicomponent reactions in medicinal chemistry” (Medchemcomm, 2012):
In brackets after ≈: the same amount, converted by molar mass.

What was measured:
[1] = biological target: Glycogen synthase kinase-3 beta (Mus musculus, UniProt Q9WV60); test: Inhibition of recombinant mouse GSK3beta expressed in COS-1 cells by luciferase reporter gene assay; format: cell-based
[2] = tested on: Plasmodium falciparum; test: Antiparasitic activity against chloroquine-resistant Plasmodium falciparum assessed as inhibition of parasite survival; format: functional, organism-based
[3] = tested on: HeLa; test: Antiproliferative activity against human HeLa cells; format: functional
[4] = tested on: Plasmodium falciparum; test: Antiparasitic activity against chloroquine-resistant Plasmodium falciparum; format: functional, organism-based
[5] = tested on: Plasmodium falciparum; test: Ratio of chloroquine IC50 to compound IC50 for chloroquine-resistant Plasmodium falciparum; format: functional
[6] = biological target: Mitogen-activated protein kinase 14 (Homo sapiens, UniProt Q16539); test: Inhibition of p38 alpha MAP kinase (unknown origin)
[7] = biological target: T1, Tyrosine-protein phosphatase non-receptor type 1 (Homo sapiens, UniProt P18031); test: Inhibition of PTP1B (unknown origin)
T1 sequence (P18031 whole entry): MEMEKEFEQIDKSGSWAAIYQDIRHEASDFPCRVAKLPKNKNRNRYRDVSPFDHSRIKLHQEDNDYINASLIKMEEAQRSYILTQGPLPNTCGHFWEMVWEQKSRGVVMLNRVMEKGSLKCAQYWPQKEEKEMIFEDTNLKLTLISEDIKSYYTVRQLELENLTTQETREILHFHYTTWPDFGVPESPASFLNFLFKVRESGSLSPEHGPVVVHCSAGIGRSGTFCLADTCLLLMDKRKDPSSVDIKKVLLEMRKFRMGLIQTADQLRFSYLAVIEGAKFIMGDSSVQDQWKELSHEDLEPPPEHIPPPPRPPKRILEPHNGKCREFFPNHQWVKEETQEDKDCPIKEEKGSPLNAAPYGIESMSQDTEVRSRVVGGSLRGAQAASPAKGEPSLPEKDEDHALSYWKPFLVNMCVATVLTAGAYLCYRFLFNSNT

[8] = biological target: T2, M-phase inducer phosphatase 2 (Homo sapiens, UniProt P30305); test: Inhibition of CDC25B (unknown origin)
T2 sequence (P30305 whole entry): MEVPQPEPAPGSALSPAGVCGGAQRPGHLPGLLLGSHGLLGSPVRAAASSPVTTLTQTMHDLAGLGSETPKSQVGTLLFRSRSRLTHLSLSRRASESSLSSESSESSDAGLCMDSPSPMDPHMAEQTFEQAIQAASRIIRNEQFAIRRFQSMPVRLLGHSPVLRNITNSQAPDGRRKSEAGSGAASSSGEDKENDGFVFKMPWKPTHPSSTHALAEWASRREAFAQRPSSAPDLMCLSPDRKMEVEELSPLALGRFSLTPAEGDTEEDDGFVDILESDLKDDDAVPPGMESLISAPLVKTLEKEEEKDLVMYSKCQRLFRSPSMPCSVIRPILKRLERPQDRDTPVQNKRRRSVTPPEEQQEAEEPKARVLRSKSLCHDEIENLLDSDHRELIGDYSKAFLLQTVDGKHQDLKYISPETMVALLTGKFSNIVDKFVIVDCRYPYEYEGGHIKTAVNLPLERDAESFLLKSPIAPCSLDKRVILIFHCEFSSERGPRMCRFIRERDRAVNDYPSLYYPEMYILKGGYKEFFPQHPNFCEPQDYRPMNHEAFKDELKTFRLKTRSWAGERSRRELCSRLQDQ

[9] = biological target: T3, Tyrosine-protein phosphatase non-receptor type 2 (Homo sapiens, UniProt P17706); test: Inhibition of TC-PTP (unknown origin)
T3 sequence (P17706 whole entry): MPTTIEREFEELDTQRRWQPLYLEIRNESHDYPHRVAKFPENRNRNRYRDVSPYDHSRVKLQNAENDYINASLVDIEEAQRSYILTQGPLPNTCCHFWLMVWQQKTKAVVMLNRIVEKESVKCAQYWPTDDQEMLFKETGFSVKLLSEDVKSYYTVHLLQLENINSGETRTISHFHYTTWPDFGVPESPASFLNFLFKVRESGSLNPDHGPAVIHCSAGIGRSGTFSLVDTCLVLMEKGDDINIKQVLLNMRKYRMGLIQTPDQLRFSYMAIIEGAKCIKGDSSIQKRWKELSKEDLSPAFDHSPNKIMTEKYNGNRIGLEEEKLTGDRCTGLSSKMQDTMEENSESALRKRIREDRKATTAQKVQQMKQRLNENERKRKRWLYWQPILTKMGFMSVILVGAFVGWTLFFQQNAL

[10] = biological target: T4, Aurora kinase A (Homo sapiens, UniProt O14965); test: Inhibition of Aurora A kinase (unknown origin)
T4 sequence (O14965 whole entry): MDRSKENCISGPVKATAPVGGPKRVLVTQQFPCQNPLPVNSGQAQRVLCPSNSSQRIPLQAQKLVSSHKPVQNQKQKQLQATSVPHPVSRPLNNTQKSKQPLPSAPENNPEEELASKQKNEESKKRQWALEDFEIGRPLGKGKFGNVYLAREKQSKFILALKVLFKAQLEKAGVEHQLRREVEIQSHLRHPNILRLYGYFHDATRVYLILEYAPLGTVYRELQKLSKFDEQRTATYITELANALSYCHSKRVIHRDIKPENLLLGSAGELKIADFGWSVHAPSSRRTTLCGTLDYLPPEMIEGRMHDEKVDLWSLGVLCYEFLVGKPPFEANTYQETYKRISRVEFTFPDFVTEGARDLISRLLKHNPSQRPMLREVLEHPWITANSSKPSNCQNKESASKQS

[11] = Inhibition of Mycobacterium tuberculosis protein tyrosine phosphatase B
[12] = biological target: T5, Tumour suppressor p53/oncoprotein Mdm2 (Homo sapiens, UniProt Q00987); test: Competitive inhibition of recombinant human Mdm2 (aa 1 to 118)-p53 ( 1 to 321) interaction; format: protein assay
[13] = biological target: T6, E3 ubiquitin-protein ligase Mdm2 (Homo sapiens, UniProt Q00987); test: Binding affinity to HDM2 ( unknown origin) by NMR analysis
[14] = biological target: T6, E3 ubiquitin-protein ligase Mdm2; test: Inhibition of Mdm2 in p53-deficient human PA-1 cells; format: cell-based
[15] = biological target: T5, Tumour suppressor p53/oncoprotein Mdm2; test: Inhibition of Mdm2-p53 interaction in human PA-1 cells; format: cell-based
[16] = tested on: MCF7; test: Antiproliferative activity against human MCF7 cells; format: functional, cell-based
[17] = tested on: Trypanosoma cruzi; test: Antiparasitic activity against epimastigote stage of Trypanosoma cruzi assessed as growth inhibition at 50 uM; format: functional
[18] = biological target: T7, Prolyl endopeptidase (Homo sapiens, UniProt P48147); test: Inhibition of purified prolyl oligopeptidase (unknown origin) after 1 hr by spectrophotometry
T7 sequence (P48147 whole entry): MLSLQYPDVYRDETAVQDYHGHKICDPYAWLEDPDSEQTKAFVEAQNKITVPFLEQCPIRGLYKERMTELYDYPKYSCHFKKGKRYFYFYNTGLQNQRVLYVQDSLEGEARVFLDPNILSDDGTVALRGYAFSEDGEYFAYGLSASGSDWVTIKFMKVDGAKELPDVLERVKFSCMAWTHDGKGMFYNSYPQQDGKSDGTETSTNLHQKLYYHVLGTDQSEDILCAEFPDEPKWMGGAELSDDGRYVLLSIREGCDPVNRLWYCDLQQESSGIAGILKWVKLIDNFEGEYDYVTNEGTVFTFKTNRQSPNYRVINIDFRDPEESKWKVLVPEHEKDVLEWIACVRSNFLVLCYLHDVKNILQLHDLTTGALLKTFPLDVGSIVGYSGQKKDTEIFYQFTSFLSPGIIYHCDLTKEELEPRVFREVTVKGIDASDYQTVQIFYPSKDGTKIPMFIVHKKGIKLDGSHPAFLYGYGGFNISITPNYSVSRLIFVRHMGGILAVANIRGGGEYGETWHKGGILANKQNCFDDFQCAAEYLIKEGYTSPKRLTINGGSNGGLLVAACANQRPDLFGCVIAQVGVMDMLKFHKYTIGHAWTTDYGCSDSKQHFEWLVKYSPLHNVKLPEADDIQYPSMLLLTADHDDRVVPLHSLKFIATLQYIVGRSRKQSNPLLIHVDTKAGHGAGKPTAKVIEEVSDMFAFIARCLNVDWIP

[19] = tested on: Mycobacterium tuberculosis; test: Antibacterial activity against Mycobacterium tuberculosis H37Ra; format: functional
[20] = tested on: HT-29; test: Cytotoxicity against human HT-29 cells; format: functional
[21] = tested on: PC-3; test: Cytotoxicity against human PC3 cells; format: functional

T5 sequence (P04637 whole entry, the tested form may be a part): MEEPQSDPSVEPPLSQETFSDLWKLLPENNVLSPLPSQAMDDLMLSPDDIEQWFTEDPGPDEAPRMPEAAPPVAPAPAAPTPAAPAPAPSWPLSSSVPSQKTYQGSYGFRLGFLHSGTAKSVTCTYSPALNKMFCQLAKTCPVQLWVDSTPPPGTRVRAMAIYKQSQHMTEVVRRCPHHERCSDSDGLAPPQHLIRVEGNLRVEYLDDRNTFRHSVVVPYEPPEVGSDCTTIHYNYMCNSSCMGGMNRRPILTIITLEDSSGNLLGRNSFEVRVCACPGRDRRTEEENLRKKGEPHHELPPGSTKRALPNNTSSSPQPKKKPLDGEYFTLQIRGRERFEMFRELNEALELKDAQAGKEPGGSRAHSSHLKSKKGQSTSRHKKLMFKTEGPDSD
T5 sequence (Q00987 whole entry, the tested form may be a part): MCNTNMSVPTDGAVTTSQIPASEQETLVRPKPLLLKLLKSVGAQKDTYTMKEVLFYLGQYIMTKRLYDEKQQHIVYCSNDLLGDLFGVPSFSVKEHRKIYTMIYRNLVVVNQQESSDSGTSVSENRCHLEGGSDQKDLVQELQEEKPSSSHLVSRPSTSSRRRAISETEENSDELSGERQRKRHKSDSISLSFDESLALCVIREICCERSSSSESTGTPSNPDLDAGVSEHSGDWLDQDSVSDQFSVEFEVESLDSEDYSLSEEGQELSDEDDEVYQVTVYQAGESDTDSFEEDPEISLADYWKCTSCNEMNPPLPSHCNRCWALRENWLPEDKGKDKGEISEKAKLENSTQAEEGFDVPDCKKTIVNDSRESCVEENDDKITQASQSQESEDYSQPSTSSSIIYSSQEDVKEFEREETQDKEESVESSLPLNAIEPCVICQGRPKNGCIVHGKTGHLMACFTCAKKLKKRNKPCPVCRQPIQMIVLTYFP
T6 sequence (Q00987 whole entry): as the sequence (Q00987 whole entry, the tested form may be a part) above
Sequence of Mitogen-activated protein kinase 14 (Q16539 whole entry): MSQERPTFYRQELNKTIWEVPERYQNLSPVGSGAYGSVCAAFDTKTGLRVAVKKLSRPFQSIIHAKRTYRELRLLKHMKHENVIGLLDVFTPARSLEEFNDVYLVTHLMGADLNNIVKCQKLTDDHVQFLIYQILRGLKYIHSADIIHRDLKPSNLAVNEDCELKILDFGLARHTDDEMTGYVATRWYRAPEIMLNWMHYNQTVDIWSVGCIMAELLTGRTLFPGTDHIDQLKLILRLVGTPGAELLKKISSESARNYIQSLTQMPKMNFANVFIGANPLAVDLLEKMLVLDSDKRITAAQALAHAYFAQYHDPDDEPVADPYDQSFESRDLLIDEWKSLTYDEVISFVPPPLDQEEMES
Sequence of Glycogen synthase kinase-3 beta (Q9WV60 whole entry): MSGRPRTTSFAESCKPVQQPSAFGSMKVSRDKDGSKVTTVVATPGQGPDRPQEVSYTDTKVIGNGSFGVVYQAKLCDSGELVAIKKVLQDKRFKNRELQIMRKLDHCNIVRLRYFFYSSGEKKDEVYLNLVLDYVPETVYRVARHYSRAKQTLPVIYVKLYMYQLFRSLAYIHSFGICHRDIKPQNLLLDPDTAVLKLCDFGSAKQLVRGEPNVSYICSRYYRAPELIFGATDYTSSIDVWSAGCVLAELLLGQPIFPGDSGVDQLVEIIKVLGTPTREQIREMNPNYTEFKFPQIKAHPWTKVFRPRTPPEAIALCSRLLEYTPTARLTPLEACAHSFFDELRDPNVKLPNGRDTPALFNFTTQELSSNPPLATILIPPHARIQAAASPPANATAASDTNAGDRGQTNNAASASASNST

SMILES: c1cnc2nc(-c3ccc4[nH]ncc4c3)c(NC3CCCCC3)n2c1
- Ki [1]: 0.01 µM

SMILES: O=C(CN(CCCNc1ccnc2cc(Cl)ccc12)C(=O)c1ccncc1)NC1CCCCC1
- IC50 [2]: 0.61 µM

SMILES: O=C(CN(CCCNc1ccnc2cc(Cl)ccc12)C(=O)c1cnccn1)NC1CCCCC1
- IC50 [2]: 0.54 µM

SMILES: Cc1cc2c(c(=O)n1C)C(c1ccc(N(C)C)c(Br)c1)C(C#N)=C(N)O2 (stereo not given)
- GI50 [3]: 0.33 µM

SMILES: CC(NCCCNc1ccnc2cc(Cl)ccc12)c1nc(Cc2ccccc2)c(N2CCOCC2)o1 (stereo not given)
- IC50 [4]: 0.0038 µM
- Ratio IC50 [5]: 21

SMILES: Cc1ccoc1-c1cc(-c2ccc(Br)cc2)[nH]c(=N)c1C#N
- IC50 [6]: 0.07 µM

SMILES: N#Cc1c(-c2ccc(Cl)c(Cl)c2)cc(-c2ccc(Br)cc2)nc1N
- IC50 [6]: 0.12 µM

SMILES: COC(c1ccc(C)cc1)c1cnn2c(-c3ccccc3)cc3c(Cl)cccc3c12 (stereo not given)
- IC50 [7]: 1 µM
- IC50 [8]: 2.19 µM
- IC50 [9]: 4.5 µM
- IC50 [10]: 13.4 µM

SMILES: COc1ccc(NN2[C@@H]([C@H](O)c3cc(Br)c(OC)c(OC)c3)C=C[C@H]3C(=O)N(C4CCCCC4)C(=O)[C@H]32)cc1
- IC50 [11]: 66 µM

SMILES: O=C1NC(=O)[C@@H]2C=C[C@H]([C@H](O)C3CC=CCC3)N(Nc3ccc(Cl)cc3Cl)[C@H]12 (stereo not given in full)
- IC50 [11]: 68 µM

SMILES: O=C(NCc1ccccc1)C1C(=O)Nc2sc3c(c2C(=O)N1Cc1ccc(Cl)cc1)CCCC3 (stereo not given)
- Ki [12]: 40 µM

SMILES: O=C(NCc1ccc(Cl)c(Cl)c1)C1C(=O)Nc2sc3c(c2C(=O)N1Cc1ccc(Cl)cc1)CCCC3 (stereo not given)
- Ki [12]: 45 µM

SMILES: Cc1ccc(S(=O)(=O)/N=C(\Nc2ccc(Cl)cc2)NC(C)(C)C)cc1
- Kd [13]: > 100 µM

SMILES: O=C1C(O)=C(c2ccccc2)C(c2ccc(Cl)cc2)N1Cc1ccc(Cl)cc1 (stereo not given)
- IC50 [14]: 26.2 µM
- Kd [13]: > 200 µM
- IC50 [15]: 12.2 µM

SMILES: CC1(C)CC(=O)C2=C(C1)Oc1ccc3ccccc3c1C2c1ccc(O)cc1 (stereo not given)
- IC50 [16]: 6.7 µg/mL (≈ 18.1 µM)

SMILES: N#CC1=C(N)Oc2ccc3ccccc3c2C1c1ccc([N+](=O)[O-])cc1 (stereo not given)
- IC50 [16]: 8.9 µg/mL (≈ 25.9 µM)

SMILES: CC1(C(=O)NC2CCCCC2)CCCC(=O)N1CCCCCNc1ccnc2cc(Cl)ccc12 (stereo not given)
- IC50 [4]: 0.096 µM

SMILES: COC(=O)C1=C(C)N(C)C(=O)N(C(=O)NCCCCNc2ccnc3cc(Cl)ccc23)C1c1ccc(OC)cc1 (stereo not given)
- IC50 [4]: 0.004 µM
- Ratio IC50 [5]: 200

SMILES: CNC(=O)CC1S/C(=N\N=C(/C)c2ccc(Br)cc2)N(C)C1=O (stereo not given)
- inhibition at 50 µM [17]: 60%

SMILES: CCOC(=O)c1ccc2c(c1)c1c(c(-c3cccc4ccccc34)[n+]2C)CCO1
- IC50 [18]: 75 µM

SMILES: COc1ccc(C2Nc3ccccc3C3CCCOC32)cc1 (stereo not given)
- MIC [19]: 6.25 µM (≈ 1.85 µg/mL)

SMILES: Cn1c(=O)c2c(c3ccccc31)OC(N)=C(C#N)C2c1cncc(Br)c1 (stereo not given)
- GI50 [3]: 0.013 µM

SMILES: CC1CS(=O)(=O)CCN1/N=C/c1ccc([N+](=O)[O-])o1 (stereo not given) [NIFURTIMOX]
- inhibition at 50 µM [17]: 100%

SMILES: CC(=O)O[C@H]1C(=O)[C@@]2(C)[C@H]([C@H](OC(=O)c3ccccc3)[C@]3(O)C[C@H](OC(=O)[C@H](O)[C@@H](NC(=O)c4ccccc4)c4ccccc4)C(C)=C1C3(C)C)[C@]1(OC(C)=O)CO[C@@H]1C[C@@H]2O [PACLITAXEL]
- GI50 ([20]; Homo sapiens, HT-29): 0.0053 µM
- GI50 ([21]; Homo sapiens, PC-3): 0.0072 µM

SMILES: CC/C(=C(\c1ccccc1)c1ccc(OCCN(C)C)cc1)c1ccccc1 [TAMOXIFEN]
- IC50 [16]: 10 µg/mL (≈ 26.9 µM)

SMILES: CC[C@@H](C)[C@H](NC(=O)[C@H]1CCCCN1C)C(=O)N(COC(=O)CC(C)C)[C@H](C[C@@H](OC(C)=O)c1nc(C(=O)N[C@@H](Cc2ccc(O)cc2)C[C@H](C)C(=O)O)cs1)C(C)C [TUBULYSIN A]
- GI50 [20]: 0.00032 µM
- GI50 [21]: 0.00021 µM
